Results on 18 molecules are retold here after patent publication US6750348B1, “Chemokine receptor binding heterocyclic compounds” (AnorMED, Inc., priority 1999, dated 2004).

What all share (type): cell-based
One assay relates to HIV-1 BaL (CCR5 using). Briefly: Inhibition of HIV-1 (BaL) replication in PHA-stimulated PBMC's (MTT). The note with it: Human immunodeficiency virus 1, BAL, MTT assay. The method, then:
Compounds were tested for their ability to inhibit HIV-1 replication in MT-4 cells or PBMC's (peripheral blood mononucleocytes) using published procedures (for example, see: Labrosse et al. J. Virol. 1998, 6381-6388; Simmons et al. J. Virol. 1998, 8453-8457; Donzella et al. Nature Medicine 1998, 72-77; Schols et al. J. Exp. Med. 1997, 1383-1388; De Clercq et al. Antiviral Res. 1997, 147-156; and Bridger et al. U.S. patent application Ser. No. 09/111,895). In addition to the above references, experimental methods for performing anti-viral assays can also be found in: Bridger et al. J. Med. Chem. 1995, 38, 366-378; Bridger et al. J. Med. Chem. 1996, 39, 109-119; Bridger et al. U.S. Pat. No. 5,698,546; Bridger et al. U.S. Pat. No. 5,583,131; Bridger et al. U.S. Pat. No. 5,817,807; De Clercq et al. Antimicrob. Agents and Chemother. 1994, 38, 668-674.
The HIV-1 strain BaL is M-tropic (macrophage tropic) strain that exclusively uses CCR5 as a co-receptor for entry into cells. PBMC's (from healthy donors) express all chemokine receptors including CXCR4 and CCR5.

A further assay relates to HIV-1 NL4.3 or IIIB. Briefly: Inhibition of HIV-1 (NL4.3 or IIIB) replication in MT-4 cells (MTT). The following applies: Human immunodeficiency virus 1, IIIB, MT4, read-out: EC50, inhibition of HIV-1 NL4.3 or IIIB replication. In short, it runs like this:
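CXCR4-tropic virus infected MT-4 cells at MOI 0.01 (100× CCID50) across a range of compound concentrations, with cytotoxicity run in parallel. Viable cells counted by MTT after 5 days. EC50 is the concentration protecting 50% of infected cells from viral cytopathicity.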

For assay [1], the system named is RANTES induced Ca flux in U87.CCR5 cells. Briefly: Inhibition of RANTES induced Ca flux in U87.CCR5 cells (FLIPR). The note with it: read-out: inhibited RANTES induced Ca flux; for inhibition at 20 µg/mL: U-87-CCR5, at 20 μg/mL. The method, then:
(§1) Loading dye: Fluo-3, AM (Molecular Probes F-1241) is dissolved in anhydrous DMSO and stored frozen in aliquots. To increase the solubility of the dye in the loading medium, 10% (w/v) pluronic acid (Molecular Probes F-127) is added to the Fluo-3 stock solution immediately before use.
(§2) HBSS+20 mM Hepes buffer+0.2% BSA, pH 7.4. HBSS 10× [(w/o phenol red and sodium bicarbonate (Gibco 14 065-049)]; Hepes buffer 1M (Gibco 15 630-056), BSA (Sigma A3675). The flux buffer is vacuum-filtered and stored refrigerated for a maximum of 5 days. Before use in the experiment, the buffer is warmed at 37° C. in a waterbath.
(§3) The test compounds were diluted in flux buffer and added to 4 wells of a black microplate (4 parallel measurements per compound).
(§4) The chemokines are diluted in flux buffer to concentrations that are 4-fold higher than the desired concentrations required for stimulation of the cells (i.e. 2.5 nM for SDF-1α and 0.6 nM for RANTES). The chemokines were added to untreated 96-well Sero well compound plates (International Medical, Sterilin code 611F96). In the negative control well's (baseline monitoring), flux buffer is added instead of chemokine. As a positive control to check for dye loading efficiency, 20 μM digitonin (final concentration) was also included. The agonist plate was incubated in the FLIPR (37° C.) for 15-30 min.
(§5) The FLIPR settings (camera exposure time and laser power) are adjusted to obtain initial fluorescence values between 8,000 and 10,000 units. After monitoring a 20 second-baseline, the agonist (chemokine) (50 μL) is added by automatic pipettor with black pipette tips. Fluorescence is measured simultaneously in all wells of the microplate every 2 seconds (first 2 min) and thereafter every 6 seconds (additional 2 min). The average ca-flux measured in each set of 4 identical wells (one test compound) was calculated by the FLIPR software.
U87.CCR5 cells were seeded into the black microplates (Costar 3603) on the day before the experiment. The culture medium was removed from the cells and 100 μL of loading medium (DMEM+10% FBS+4 μM Fluo-3, AM) was added to each well and the plate was incubate at 37° C. for 45 min. The loading medium was then removed an the cells were washed twice with flux buffer using the CELL WASH microplate washer (Labsystems) followed by incubation in flux buffer for 10 min. at room temperature (the washing procedure was repeated twice). Finally, the wash buffer was removed from the microplate wells and 150 μL of the test compound, diluted in flux buffer to the desired concentration. The microplate was then incubated in the FLIPR drawer for 10 min. prior to testing. Measurements were performed as described above.
The compounds of the current invention were tested for inhibition of RANTES induced Ca flux in U87.CCR5 cells.

Assay [2] deals with SDF-1α induced Ca flux in SUP-T1 cells. The experiment in a line: Inhibition of SDF-1α induced Ca flux in SUP-T1 cells (FLIPR). The note with it: Homo sapiens, at 20 μg/mL, read-out: inhibited SDF-1α induced Ca flux. The protocol: as §1, §2, §3, §4
SUP-T1 cells were centrifuged at room temperature (RT) and re-suspended in loading medium (RPMI-1640 containing 2% FBS and 4 μM Fluo-3, AM). The cells were incubate at room temperature for 45 min. then washed twice in flux buffer then incubated in flux buffer at room temperature for 10 min. The cells were centrifuged and re-suspended in flux buffer at a density of 3×10^6 cells per mL. […] The microplate is then gently centrifuged at room temperature. Homogeneous spreading of the cells on the bottom of the microplate wells was then confirmed with a microscope and the microplate was incubated in the FLIPR (37° C.) for 10 min. prior to testing.
as §5
The compounds of the current invention were tested for inhibition of SDF-1α induced Ca flux in SUP-T1 cells using the method described above.

For the molecule `c1ccc(CNCc2ccc(CN(C3CCNCC3)C3CCCc4cccnc43)cc2)nc1` (stereo not shown) [Example 33, N-(2-pyridinylmethyl)-N′-4-piperidinyl-N′-(5,6,7,8-tetrahydro-8-quinolinyl)-1,4-benzenedimethanamine], the EC50 in the assay on HIV-1 BaL (CCR5 using) and with HIV-1 NL4.3 or IIIB was < 20 µg/mL throughout.

`C[C@H](N)C(=O)N(Cc1ccc(CNCc2ccccn2)cc1)C1CCCc2cccnc21` (stereo partly shown) [Example 73, N-[[4-[[(2-pyridinylmethyl)amino]methyl]phenyl]methyl]-N-(5,6,7,8-tetrahydro-8-quinolinyl)-(L)-alaninamide]: the inhibition at 20 µg/mL in assay [1] and in assay [2] was > 20% in each case.

As for `COc1ccc(CCN(Cc2ccc(CNC3CCCc4cccnc43)cc2)Cc2ccccn2)cc1` (stereo not shown) [Example 91, N-(2-pyridinylmethyl)-N-[2-(4-methoxyphenyl)ethyl]-N′-(5,6,7,8-tetrahydro-8-quinolinyl)-1,4-benzenedimethanamine], the EC50 with HIV-1 BaL (CCR5 using) and with HIV-1 NL4.3 or IIIB was < 20 µg/mL in each case.

On to `c1ccc(CNCc2ccc(CNc3cccc4cccnc34)cc2)nc1` [Example 6, N-(2-pyridinylmethyl)-N′-(8-quinolinyl)-1,4-benzenedimethanamine], for which, in assay [1], the inhibition at 20 µg/mL is > 20%. Besides, in the assay with HIV-1 NL4.3 or IIIB, the EC50 was < 20 µg/mL.

For `c1ccc(CNCc2ccc(CN(CCNCc3ccc4ccccc4c3)C3CCCc4cccnc43)cc2)nc1` (stereo not shown) [Example 47, N-(2-pyridinylmethyl)-N′-[2-[(2-naphthalenylmethyl)amino]ethyl]-N′-(5,6,7,8-tetrahydro-8-quinolinyl)-1,4-benzenedimethanamine], the inhibition at 20 µg/mL in assay [1] and in assay [2] was > 20% each time. For the same molecule, the EC50 with HIV-1 NL4.3 or IIIB is < 20 µg/mL.

In the case of `c1ccc(NCCN(Cc2ccc(CNCc3ccccn3)cc2)C2CCCc3cccnc32)cc1` (stereo not shown) [Example 34, N-(2-pyridinylmethyl)-N′-[2-[(phenyl)amino]ethyl]-N′-(5,6,7,8-tetrahydro-8-quinolinyl)-1,4-benzenedimethanamine], the EC50 in the assay with HIV-1 BaL (CCR5 using) and in the assay with HIV-1 NL4.3 or IIIB was < 20 µg/mL throughout.

Regarding `c1ccc(CNCc2ccc(CN(c3nc4ccccc4o3)C3CCCc4cccnc43)cc2)nc1` (stereo not shown) [Example 67, N-(2-pyridinylmethyl)-N′-(2-benzoxazolyl)-N′-(5,6,7,8-tetrahydro-8-quinolinyl)-1,4-benzenedimethanamine], the inhibition at 20 µg/mL in assay [1] was > 20%. Besides, the EC50 in the assay on HIV-1 NL4.3 or IIIB was < 20 µg/mL.

Regarding `c1ccc(CNCCN(Cc2ccc(CNCc3ccccn3)cc2)C2CCCc3cccnc32)nc1` (stereo not shown) [Example 49, N-(2-pyridinylmethyl)-N′-[2-[(2-pyridinylmethyl)amino]ethyl]-N′-(5,6,7,8-tetrahydro-8-quinolinyl)-1,4-benzenedimethanamine], the inhibition at 20 µg/mL in assay [1] and in assay [2] was > 20% throughout. Further, in the assay on HIV-1 NL4.3 or IIIB, the EC50 is < 20 µg/mL.

Turning to `NCCCC[C@H](N)C(=O)N(Cc1ccc(CNCc2ccccn2)cc1)C1CCCc2cccnc21` (stereo partly shown) [Example 77, N-[[4-[[(2-pyridinylmethyl)amino]methyl]phenyl]methyl]-N-(5,6,7,8-tetrahydro-8-quinolinyl)-(L)-lysinamide], the inhibition at 20 µg/mL in assay [1] and in assay [2] was > 20% throughout.

On to `Fc1cccc2c1CC(N(Cc1ccc(CNCc3ccccn3)cc1)Cc1ncc[nH]1)CC2` (stereo not shown) [Example 44, N-(2-pyridinylmethyl)-N′-(1H-imidazol-2-ylmethyl)-N′-(8-Fluoro-1,2,3,4-tetrahydro-2-naphthalenyl)-1,4-benzenedimethanamine], for which the inhibition at 20 µg/mL in assay [1] was > 20%. In addition, the EC50 in the assay on HIV-1 NL4.3 or IIIB is < 20 µg/mL.

For the molecule `COc1ccc2c(c1)CCC(NCc1ccc(CNCc3ccccn3)cc1)C2` (stereo not shown) [Example 36, N-(2-pyridinylmethyl)-N′-(6-methoxy-1,2,3,4-tetrahydro-2-naphthalenyl)-1,4-benzenedimethanamine], the EC50 in the assay with HIV-1 BaL (CCR5 using) and in the assay on HIV-1 NL4.3 or IIIB was < 20 µg/mL each time.

As for `c1ccc(CNCc2ccc(CN(CCNCc3ccco3)C3CCCc4cccnc43)cc2)nc1` (stereo not shown) [Example 50, N-(2-pyridinylmethyl)-N′-[2-[(2-furanylmethyl)amino]ethyl]-N′-(5,6,7,8-tetrahydro-8-quinolinyl)-1,4-benzenedimethanamine], the inhibition at 20 µg/mL in assay [1] and in assay [2] was > 20% each time. Also, in the assay on HIV-1 NL4.3 or IIIB, the EC50 is < 20 µg/mL.

With `c1ccc(CNCc2ccc(CNC3CCCc4ncccc43)cc2)nc1` (stereo not shown) [Example 13, N-(2-pyridinylmethyl)-N′-(5,6,7,8-tetrahydro-5-quinolinyl)-1,4-benzenedimethanamine], the EC50 in the assay with HIV-1 BaL (CCR5 using) and in the assay on HIV-1 NL4.3 or IIIB was < 20 µg/mL each time.

On to `c1ccc(CN2CCC(N(CCc3ccccn3)Cc3cccc(CNCc4ccccn4)c3)C2)cc1` (stereo not shown) [Example 179, N-[1-(benzyl)-3-pyrrolidinyl]-N-[2-(2-pyridinyl)ethyl]-N′-(2-pyridinylmethyl)-1,3-benzenedimethanamine], for which, in assay [1] (U-87-CCR5, at 20 μM), the inhibition at 20 µM is > 20%.

As to `c1ccc(CNCc2ccc(CN(CCCNCc3ccc4ccccc4c3)C3CCCc4cccnc43)cc2)nc1` (stereo not shown) [Example 22, N-(2-pyridinylmethyl)-N′-[3-((2-naphthalenylmethyl)amino)propyl]-N′-(5,6,7,8-tetrahydro-8-quinolinyl)-1,4-benzenedimethanamine], the inhibition at 20 µg/mL in assay [1] and in assay [2] was > 20% throughout.

Consider `c1ccc(CNCc2ccc(CN(Cc3cc[nH]n3)C3CCCc4cccnc43)cc2)nc1` (stereo not shown) [Example 25, N-(2-pyridinylmethyl)-N′-[3-pyrazolylmethyl]-N′-(5,6,7,8-tetrahydro-8-quinolinyl)-1,4-benzenedimethanamine], for which the inhibition at 20 µg/mL in assay [1] was > 20%.

For `N[C@@H]1CCCC[C@H]1N(Cc1ccc(CNCc2ccccn2)cc1)C1CCCc2cccnc21` (relative stereo) [Example 68, N-(2-pyridinylmethyl)-N′-(trans-2-aminocyclohexyl)-N′-(5,6,7,8-tetrahydro-8-quinolinyl)-1,4-benzenedimethanamine], the inhibition at 20 µg/mL in assay [1] was > 20%. The EC50 in the assay on HIV-1 NL4.3 or IIIB was < 20 µg/mL.

`O=C([C@@H]1CCCN1)N(Cc1ccc(CNCc2ccccn2)cc1)C1CCCc2cccnc21` (stereo partly shown) [Example 76, N-[[4-[[(2-pyridinylmethyl)amino]methyl]phenyl]methyl]-N-(5,6,7,8-tetrahydro-8-quinolinyl)-(L)-prolinamide]: the inhibition at 20 µg/mL in assay [1] and in assay [2] was > 20% in each case.
